According to PubChem BioAssay (NCI):
Several values for one entry are separate records, joined by “and”; a condition that tells them apart may be missing. Equal entries are not always repeated.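 Five concentrations, 48 hours, 96-well plates. Here, GI50 denotes the concentration required for 50% inhibition of growth. Definition used: TGI = concentration required for complete inhibition of growth.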

Key:
Assay in all cases: inhibition of tumour cell growth, NCI panel, 48 h
[1] = tested on: MCF7 breast
[2] = tested on: TK-10 renal
[3] = tested on: SF-539 CNS
[4] = tested on: OVCAR-3 ovarian
[5] = tested on: ACHN renal
[6] = tested on: NCI-H23 lung
[7] = tested on: SNB-19 CNS
[8] = tested on: COLO 205 colon
[9] = tested on: SR leukemia
[10] = tested on: K-562 leukemia
[11] = tested on: SK-OV-3 ovarian
[12] = tested on: OVCAR-8 ovarian
[13] = tested on: U251 CNS
[14] = tested on: SF-295 CNS
[15] = tested on: UACC-62 melanoma
[16] = tested on: T-47D breast
[17] = tested on: SK-MEL-2 melanoma
[18] = tested on: HS 578T breast
[19] = tested on: SNB-75 CNS

SMILES	TGI [1] [µM]	TGI [2] [µM]	TGI [3] [µM]	TGI [4] [µM]	TGI [5] [µM]	TGI [6] [µM]	TGI [7] [µM]	TGI [8] [µM]	TGI [9] [µM]	TGI [10] [µM]	TGI [11] [µM]	TGI [12] [µM]	TGI [13] [µM]	TGI [14] [µM]	TGI [15] [µM]	TGI [16] [µM]	TGI [17] [µM]	TGI [18] [µM]	TGI [19] [µM]	GI50 [9]
Oc1cccc2cc(Br)cnc12	> 100	> 100	57.3	> 26.3	> 69.2	> 72.8	> 100	97.5	> 52	16.1	> 100	> 100	> 100	> 100	29.2	> 25.7	> 100	> 92.6	> 83.2	
O=C(NC(Nc1ccc(F)cc1)(C(F)(F)F)C(F)(F)F)C(C(F)(F)F)C(F)(F)F	> 100	> 100	> 85.9	> 100	> 100	> 100	> 100	> 100	> 95.8	> 100	> 100	> 100	> 100	> 100	> 100	> 100	25.2	> 90.5	> 100	
O=c1oc2ccc(Cl)cc2cc1-c1cn2ccccc2n1	99.2	35.3	> 100	> 100	8.54	46.8	> 21	> 100	> 100	> 100	6.52	> 100	> 40.2	24.5	38.2	> 100	> 100	> 100	> 41.3	
O=C(NCCN1CCCCC1)c1ccc(I)cc1	> 100	> 100	> 100	> 100	> 100	> 100	> 100	> 100	> 100	> 100	> 100	> 100	> 100	> 100		> 100	> 100	> 100	> 100	
CCN(CC)/[N+]([O-])=N/OCOC(C)=O	> 100	> 100	> 100	> 100	> 100	> 100	> 100	> 100	> 100	> 100	> 100	> 100	> 100	> 100	> 100	> 100	> 100	> 100	> 100	
CC1Cc2cc(O)c(O)cc2-c2cc(O)c(O)cc2CC1C (configuration not stated)	37.1	86.4	19.6	29.3	87.1	38.6	96.2	32.1	33	39.5	> 100	53.3	32.6	20.8	19.3	63.7	15	61.7	> 100	
O=C1N[C@@H]2c3c(Br)sc(Br)c3C(=O)[C@@H]2O1	12.6	10.5	24.1	3.38	3.48	7.35	30.3	6.58	4.03	2.56	32.7	4.52	6.1	32.5	27.5	27	37.1	78.7	16.7	
O=c1c2cc(I)ccc2nc(SCc2n[nH]c(=S)o2)n1Cc1ccccc1	31.7	37.7	30.3	31.1	28.6	34.2	55.5	22.8	> 100	70.8	62.3	40.4	31.4	40	25.4	45.4	30.4	44.3	23.1	
COc1ccccc1N=N/C(=N\NC(=O)c1ccc(C)cc1)c1ccc(N(CCC#N)CCC#N)cc1C	> 100	> 100	> 100	61.9	> 100	94.4	> 100	37.3	> 100	> 100	> 100	> 100	> 100	> 100		> 100	> 100	> 100	> 100	
Nc1c(N2CCOCC2)c(=O)nc2[nH]/c(=C\c3ccccc3)c(=O)n12	> 100	> 100	> 100		> 100	> 100	> 100	> 100	> 100	93	> 100	> 100	> 100	> 100		> 100		> 100	> 100	
C=CC(Br)(CBr)CCC(Br)C(C)(C)Cl (configuration not stated)	4.89	6.33	3.78	5.25	6.07	12.9	4.51	4.36	3.78	5.1	30.1	10.2	2.92	3.6	17.3	3.95	29.5	14.7	8.72	
O=C1c2ccccc2CC12Cc1ccccc1C2	> 100	97.4	> 100	> 100	> 100	> 100	> 100	> 100	83.5	> 100	> 100	> 100	> 100	> 100	> 100	> 100	> 100	> 100	90.3	
N#Cc1c(Cl)nc2ccccc2c1N=[N+]=[N-]	22.5	9.82	4.6	3.76	4.11	6.3	29.7	3.56	3.93	2.45	29	7.7	12.5	22.4	7.14	5.83	5.12	17.3	21.9	
O=C1NC(=O)/C(=C/c2ccc(S(=O)(=O)N/N=C\C(O)C(O)C(O)C(O)CO)cc2)N1 (configuration not stated)	> 100	> 100		> 100	> 100	> 100	> 100	> 100	> 100	> 100	> 100	> 100	> 100	> 100	> 100	> 100	> 100	> 100	> 100	
CN1C=Cc2nccc3cc4c(c1c23)OCO4	> 23.6	35.4		> 72.4	19.3	10.3	41	> 42.8	10.9	> 100	61.6	> 100	32.4	10.1	5.36	> 27.1	11.3	> 77.3	5.3	
COC(=O)[C@@H](Cc1ccccc1)N1O[C@]12CCCC[C@@H]2NC(=O)OC(C)(C)C (some centres not stated)	28.5	49	33.3	57.1	32.5	51.8	> 100	75.5	74.4	> 100			77.9	> 100	48.7	62.4	49	55.8	77.3	
CCCCCCCCCCCCOc1ccc(/C=C/C2=[N+](CCCl)CCO2)cc1	> 100	> 100	> 100	37.9	> 100		> 100	> 100	50.9	> 100	> 100	> 100	58.4	> 100	> 100	> 100	> 100	> 100	> 100	
COc1ccc(/C=C2/NC(=S)N=C2Cl)cc1	> 100	> 100	> 100	> 100	> 100	> 100	> 100	> 100	> 100	> 100	> 100	> 100	> 100	> 100		> 100	> 100	> 100	> 100	
COc1ccc(N=Nc2c(C)c(C#N)c(=S)n(C3OC(CO)C(O)C(O)C3O)c2C)cc1 (configuration not stated)	> 100	> 100	> 100	> 100	> 100	> 100	> 100	> 100	87.1	> 100	> 100		> 100	> 100	> 100	79.8	> 100	> 100	> 100	
Cc1nc2ccc(NC3OC(CO)C(O)C(O)C3O)cc2c(=O)n1-c1ccccc1 (configuration not stated)	> 100	> 100		> 100	> 100	> 100	> 100	> 100	> 100	> 100		> 100	> 100	> 100	> 100	> 100	> 100	> 100	> 100	11.1 µM and > 100 µM
